From US20230126533A1, “Method of treating an inflammatory disorder” (The University of Miami, priority 2020, published 2023)
Starred links: 1 amine or outer side, 2 acyl side, 3 side chain; linkers in the order of their positions; H or OH if unused. Non-standard residues stand in square brackets, D forms with d. *: point of attachment. Tyr(Me) = O-methyl-tyrosine, COc1ccc(C[C@H](N[*:1])C(=O)[*:2])cc1; Phenylacetyl(2,3,4,5,6-F5) = O=C(Cc1c(F)c(F)c(F)c(F)c1F)*; Phe(F5) = N[C@@H](Cc1c(F)c(F)c(F)c(F)c1F)C(=O)O; hArg = N=C(N)NCCCC[C@H](N)C(=O)O; 12Ado = NCCCCCCCCCCCC(=O)O; Nle = CCCC[C@H](N)C(=O)O; Abu = CC[C@H](N)C(=O)O

How the values were obtained:
[1] = system: C57B1/6 mice challenged with Mycobacterium abscessus (MAB) microparticles; assay: Lung inflammation score in mouse model of pulmonary sarcoidosis; assay type: in vivo; details: AVR 5 microgram per mouse daily subcutaneous, after 3 weeks, vs saline granuloma group
Method: (§1) A mouse model of pulmonary sarcoidosis was previously established in C57B1/6 mice. Microparticles (Mycobacterium abscessus) developed in-house were administered intratracheally. The tongue was pulled out with a small spatula and microparticle was inserted into the trachea using a 20 G angio-catheter tube and advanced to main bronchus until reach to resistant. After tube placement, microparticles were administered (first dose of 50 μL=5×10^8, followed by up to 3 doses of 20 μL=2×10^8 of CFU of M. abscessus). The control group received only 20 μL PBS intratracheally.
The lung tissue was fixed in formalin and cut for histology. Developed noncaseating granuloma in the mouse lung was visualized with H&E staining and immunohistochemistry staining for CD68 macrophage marker, CD4 marker, and PD-L1.
(§2) One sarcoidosis group received AVR (“AVR group”), administered via subcutaneous injection, 5 microgram per mouse daily. Another sarcoidosis group received steroid treatment ([…], the current first line treatment for sarcoidosis) (“solu-medrol group”), and the final group received only saline (“granuloma group”). After 3 weeks mice were sacrificed and graded the inflammation in the lung samples.
Two mg of AVR-352 was added to 0.5 ml DMSO. After dissolving, 1,2-propanediol 10% was added to reach a volume of 40 ml. The fluid was sterilized by passing through a 0.22-micron filter. […]

[2] = system: IL2, OAS1 and ISG15; assay: Cytokine expression (Western blot) in lungs of MAB microparticle challenged mice; assay type: in vivo; details: mouse models of Example 3; vs MAB microparticle challenge
Method: as §1, §2
The effects of AVR on IL2 (T helper 1 cytokine) and Type I interferon cytokines (OAS1 and ISG15) were measured and compared in the lungs of mice models prepared as set forth in Example 3.

[3] = system: CD209f gene; assay: RNASeq gene expression in lungs of MAB microparticle challenged mice; assay type: in vivo, mouse; details: challenged mice with AVR treatment vs challenged mice
Method: as §1, §2
Whole gene expression was analyzed using RNASeq. Harvested lung from control, challenged, and treatment groups generated as described in Example 3 were used. RNA was isolated and RNASeq was performed at Genomic center at University of Miami. […] A heatmap was generated for the differentiating genes between challenged mice with MAB microparticles versus challenged mice with AVR treatment.

[4] = system: PBMC of subjects with confirmed pulmonary sarcoidosis; assay: Apoptosis-related proteins in ex vivo sarcoidosis granuloma model (multiplex Elisa); assay type: cell-based, human; details: PBMC challenged with MAB microparticles 10:1, 48 h; for active caspase 3 concentration: 1 microM AVR
Source text: GHRHR antagonists induce apoptosis in cancer cells. The effects of GHRHR antagonist in immune cells still remains unclear. The ability of AVR to induce apoptosis in an ex vivo sarcoidosis model using PBMC of five subjects with confirmed pulmonary sarcoidosis was characterized.
PBMC samples were grouped as “control” (not challenged), “particles” (granuloma), “particles+AVR” (granuloma treated with 1 microM AVR), and “particles+Solu” (granuloma treated with methyl prednisolone as positive control). The “particle” groups were challenged with equal to 10:1 treatment with MAB microparticles. Media from all groups were removed 48 h after of treatments. Survivn, MCL-1/Bak Dimer, BClxL/Bak dimer, and active caspase 3 concentrations were measured using multiplex Elisa instrument and compared using t-test.

[5] = system: iNOS; assay: iNOS expression in lungs of MAB microparticle challenged mice; assay type: in vivo; details: mouse models of Example 3; vs MAB microparticle alone
Method: as §1, §2
Inducible Nitric oxide synthase (iNOS) plays important role in immune response to microbes. NO can control the production of Th1 immune responses by modulating IL-12 expression. NO plays an important inhibitory role in Th17 differentiation. […] To test whether AVR reduces iNOS expression in an inflammation model, lungs from mouse models described in Example 3 were evaluated for iNOS.

| Molecule | lung inflammation score (percentage of lung inflammation) [1] | IL2 expression in lung [2] | ISG15 expression in lung [2] | OAS1 expression in lung [2] | CD209f gene expression in lung [3] | active caspase 3 concentration [4] | iNOS expression in the challenged lung [5] | MCL-1/Bak dimer concentration [4] |
| --- | --- | --- | --- | --- | --- | --- | --- | --- |
| 5FPhAC-Ada-Tyr-DArg-Asp-Ala-Ile-5FPhe-Thr-Ala-Har-Tyr(Me)-Arg-Lys-Val-Leu-Abu-Gln-Leu-Ser-Ala-Arg-Lys-Leu-Leu-Gln-Asp-Ile-Nle-DArg-Har-Ada-NH2 ({Phenylacetyl(2,3,4,5,6-F5)-12Ado}-Y[dR]DAI[Phe(F5)]TA[hArg][Tyr(Me)]RKVL[Abu]QLSARKLLQDI[Nle][dR][hArg]-{12Ado-NH2}; SMILES CCCC[C@H](NC(=O)[C@@H](NC(=O)[C@H](CC(=O)O)NC(=O)[C@H](CCC(N)=O)NC(=O)[C@H](CC(C)C)NC(=O)[C@H](CC(C)C)NC(=O)[C@H](CCCCN)NC(=O)[C@H](CCCNC(=N)N)NC(=O)[C@H](C)NC(=O)[C@H](CO)NC(=O)[C@H](CC(C)C)NC(=O)[C@H](CCC(N)=O)NC(=O)[C@H](CC)NC(=O)[C@H](CC(C)C)NC(=O)[C@@H](NC(=O)[C@H](CCCCN)NC(=O)[C@H](CCCNC(=N)N)NC(=O)[C@H](Cc1ccc(OC)cc1)NC(=O)[C@H](CCCCNC(=N)N)NC(=O)[C@H](C)NC(=O)[C@@H](NC(=O)[C@H](Cc1c(F)c(F)c(F)c(F)c1F)NC(=O)[C@@H](NC(=O)[C@H](C)NC(=O)[C@H](CC(=O)O)NC(=O)[C@@H](CCCNC(=N)N)NC(=O)[C@H](Cc1ccc(O)cc1)NC(=O)CCCCCCCCCCCNC(=O)Cc1c(F)c(F)c(F)c(F)c1F)[C@@H](C)CC)[C@@H](C)O)C(C)C)[C@@H](C)CC)C(=O)N[C@H](CCCNC(=N)N)C(=O)N[C@@H](CCCCNC(=N)N)C(=O)NCCCCCCCCCCCC(N)=O) [AVR] | significantly lower inflammation scores | reduced significantly | reduced significantly | reduced significantly | significantly downregulated | significantly increased | significantly reduced MAB-induced increased iNOS expression | – |
| C[C@H]1C[C@@H]2[C@H]([C@@H](O)C[C@@]3(C)[C@H]2CC[C@]3(O)C(=O)COC(=O)CCC(=O)[O-])[C@@]2(C)C=CC(=O)C=C12.[Na+] [Solu-Medrol, reference compound] | less effect than AVR | – | – | – | – | significantly increased | reduced MAB-induced increased iNOS expression | significantly reduced |
